We go through 19 compounds from ChEMBL document CHEMBL5291721, “A preclinical secondary pharmacology resource illuminates target-adverse drug reaction associations of marketed drugs” (Nat Commun, 2023).

Where a SMILES comes first, the peptide text is derived from it. [ ]: non-standard residue; d: D form. pGlu = O=C1CC[C@@H](C(=O)O)N1; Thz = O=C(O)[C@@H]1CSCN1

For assay [1], the target named is Cannabinoid receptor 1 (Homo sapiens, UniProt P21554). The class given is functional, cell-based.
For assay [2], the target named is Muscarinic acetylcholine receptor M3 (Homo sapiens, UniProt P20309).
Chain of Muscarinic acetylcholine receptor M3 (P20309 whole entry): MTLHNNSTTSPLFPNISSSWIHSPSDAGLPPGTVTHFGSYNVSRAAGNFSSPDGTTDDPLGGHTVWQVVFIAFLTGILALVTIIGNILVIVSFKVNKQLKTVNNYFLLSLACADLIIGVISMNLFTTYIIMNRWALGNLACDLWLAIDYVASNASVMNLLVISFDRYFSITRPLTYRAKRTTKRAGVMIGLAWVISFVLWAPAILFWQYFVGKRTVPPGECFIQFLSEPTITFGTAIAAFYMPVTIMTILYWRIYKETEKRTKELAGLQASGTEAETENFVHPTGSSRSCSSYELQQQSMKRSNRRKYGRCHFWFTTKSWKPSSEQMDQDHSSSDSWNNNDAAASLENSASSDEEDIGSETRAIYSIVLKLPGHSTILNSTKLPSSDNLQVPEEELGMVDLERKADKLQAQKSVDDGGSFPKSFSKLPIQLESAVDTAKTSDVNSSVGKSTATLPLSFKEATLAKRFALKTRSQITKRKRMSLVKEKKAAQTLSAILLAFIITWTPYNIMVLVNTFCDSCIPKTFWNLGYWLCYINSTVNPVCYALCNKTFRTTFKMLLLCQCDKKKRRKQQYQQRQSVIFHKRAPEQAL
Assay [3] addresses T1, Alpha-1A adrenergic receptor (Homo sapiens, UniProt P35348).
T1 sequence (P35348 whole entry): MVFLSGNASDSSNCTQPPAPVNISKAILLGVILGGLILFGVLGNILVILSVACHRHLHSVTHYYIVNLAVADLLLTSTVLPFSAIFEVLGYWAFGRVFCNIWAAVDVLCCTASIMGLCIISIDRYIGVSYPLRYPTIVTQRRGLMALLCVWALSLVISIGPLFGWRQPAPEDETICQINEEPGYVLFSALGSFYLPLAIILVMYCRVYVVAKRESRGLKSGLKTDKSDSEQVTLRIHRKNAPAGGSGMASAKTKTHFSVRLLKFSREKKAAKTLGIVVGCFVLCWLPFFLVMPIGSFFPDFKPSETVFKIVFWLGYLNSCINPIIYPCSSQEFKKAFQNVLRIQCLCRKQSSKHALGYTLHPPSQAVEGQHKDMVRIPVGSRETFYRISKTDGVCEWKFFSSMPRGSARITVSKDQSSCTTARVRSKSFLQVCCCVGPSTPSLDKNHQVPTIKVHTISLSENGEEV
It counts as functional, cell-based.

The target in assay [4] is T2, Alpha-2B adrenergic receptor (Homo sapiens, UniProt P18089).
T2 sequence (P18089 whole entry): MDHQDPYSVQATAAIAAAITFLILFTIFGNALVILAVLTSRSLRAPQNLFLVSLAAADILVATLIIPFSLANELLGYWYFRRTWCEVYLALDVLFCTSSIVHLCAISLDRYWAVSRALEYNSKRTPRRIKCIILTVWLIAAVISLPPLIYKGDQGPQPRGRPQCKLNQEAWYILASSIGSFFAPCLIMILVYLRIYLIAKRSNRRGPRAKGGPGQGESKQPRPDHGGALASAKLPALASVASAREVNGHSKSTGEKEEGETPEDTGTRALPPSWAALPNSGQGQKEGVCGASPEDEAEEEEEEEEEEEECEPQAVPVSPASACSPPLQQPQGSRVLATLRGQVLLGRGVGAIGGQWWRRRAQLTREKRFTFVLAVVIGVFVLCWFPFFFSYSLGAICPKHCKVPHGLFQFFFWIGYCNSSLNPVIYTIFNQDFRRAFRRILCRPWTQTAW

Assay [5] deals with T3, Endothelin-1 receptor (Homo sapiens, UniProt P25101).
T3 sequence (P25101 whole entry): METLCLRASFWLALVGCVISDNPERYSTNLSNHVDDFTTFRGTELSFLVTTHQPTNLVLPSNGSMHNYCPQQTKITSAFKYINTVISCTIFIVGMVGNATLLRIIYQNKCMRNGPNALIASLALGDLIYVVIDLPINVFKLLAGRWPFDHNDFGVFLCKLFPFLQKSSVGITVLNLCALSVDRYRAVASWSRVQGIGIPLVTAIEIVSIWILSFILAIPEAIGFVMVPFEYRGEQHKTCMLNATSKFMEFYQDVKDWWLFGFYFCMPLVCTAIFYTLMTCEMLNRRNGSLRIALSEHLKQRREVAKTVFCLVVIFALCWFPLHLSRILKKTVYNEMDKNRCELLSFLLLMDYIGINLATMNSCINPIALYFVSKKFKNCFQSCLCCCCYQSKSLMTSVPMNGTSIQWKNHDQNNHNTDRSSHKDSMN

The target in assay [6] is 5-hydroxytryptamine receptor 2A (Homo sapiens, UniProt P28223). The class given is functional, cell-based.
Chain of 5-hydroxytryptamine receptor 2A (P28223 whole entry): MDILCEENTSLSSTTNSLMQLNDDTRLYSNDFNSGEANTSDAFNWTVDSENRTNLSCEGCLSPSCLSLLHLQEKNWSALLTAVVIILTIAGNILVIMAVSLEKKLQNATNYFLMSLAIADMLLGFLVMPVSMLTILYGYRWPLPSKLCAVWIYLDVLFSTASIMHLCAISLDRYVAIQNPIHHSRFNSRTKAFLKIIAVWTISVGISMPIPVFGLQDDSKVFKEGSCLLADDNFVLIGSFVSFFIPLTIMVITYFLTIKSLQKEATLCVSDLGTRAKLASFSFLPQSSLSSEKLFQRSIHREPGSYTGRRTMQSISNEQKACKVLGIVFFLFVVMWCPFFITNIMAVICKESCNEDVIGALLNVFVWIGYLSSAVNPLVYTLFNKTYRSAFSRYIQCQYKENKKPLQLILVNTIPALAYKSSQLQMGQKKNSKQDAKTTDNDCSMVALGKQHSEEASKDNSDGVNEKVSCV
Assay [7] deals with T4, Estrogen receptor (Homo sapiens, UniProt P03372).
T4 sequence (P03372 whole entry): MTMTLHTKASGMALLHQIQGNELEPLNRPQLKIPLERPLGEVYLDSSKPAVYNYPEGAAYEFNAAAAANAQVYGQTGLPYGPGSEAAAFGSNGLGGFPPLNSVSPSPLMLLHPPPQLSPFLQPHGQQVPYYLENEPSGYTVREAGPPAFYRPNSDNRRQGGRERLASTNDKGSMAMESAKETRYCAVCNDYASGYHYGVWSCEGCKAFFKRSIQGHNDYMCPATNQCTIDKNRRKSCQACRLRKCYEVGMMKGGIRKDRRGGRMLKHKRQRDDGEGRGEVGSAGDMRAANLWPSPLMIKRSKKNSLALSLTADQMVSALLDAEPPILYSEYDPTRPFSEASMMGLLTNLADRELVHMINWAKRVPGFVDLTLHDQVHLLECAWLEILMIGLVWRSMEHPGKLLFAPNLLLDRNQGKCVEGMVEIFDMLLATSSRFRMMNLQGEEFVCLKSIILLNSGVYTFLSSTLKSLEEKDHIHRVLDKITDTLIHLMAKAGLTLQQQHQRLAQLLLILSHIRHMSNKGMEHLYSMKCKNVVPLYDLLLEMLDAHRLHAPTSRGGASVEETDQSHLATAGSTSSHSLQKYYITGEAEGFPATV

Assay [8] addresses Beta-2 adrenergic receptor (Homo sapiens, UniProt P07550). The class given is functional, cell-based.
Assay [9] concerns the target T1, Alpha-1A adrenergic receptor.
The target of assay [10] is Melanocortin receptor 4 (Homo sapiens, UniProt P32245).
Chain of Melanocortin receptor 4 (P32245 whole entry): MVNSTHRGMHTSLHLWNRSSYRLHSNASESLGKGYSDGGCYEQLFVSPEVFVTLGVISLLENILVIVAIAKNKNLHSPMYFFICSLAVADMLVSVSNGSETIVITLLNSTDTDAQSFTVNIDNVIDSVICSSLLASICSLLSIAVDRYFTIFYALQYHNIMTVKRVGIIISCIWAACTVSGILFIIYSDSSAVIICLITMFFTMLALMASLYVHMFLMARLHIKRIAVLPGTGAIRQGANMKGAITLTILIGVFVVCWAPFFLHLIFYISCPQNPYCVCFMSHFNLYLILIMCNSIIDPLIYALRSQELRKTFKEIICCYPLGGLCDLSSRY
Also: assay procedure not described here.

Chain of Beta-2 adrenergic receptor (P07550 whole entry): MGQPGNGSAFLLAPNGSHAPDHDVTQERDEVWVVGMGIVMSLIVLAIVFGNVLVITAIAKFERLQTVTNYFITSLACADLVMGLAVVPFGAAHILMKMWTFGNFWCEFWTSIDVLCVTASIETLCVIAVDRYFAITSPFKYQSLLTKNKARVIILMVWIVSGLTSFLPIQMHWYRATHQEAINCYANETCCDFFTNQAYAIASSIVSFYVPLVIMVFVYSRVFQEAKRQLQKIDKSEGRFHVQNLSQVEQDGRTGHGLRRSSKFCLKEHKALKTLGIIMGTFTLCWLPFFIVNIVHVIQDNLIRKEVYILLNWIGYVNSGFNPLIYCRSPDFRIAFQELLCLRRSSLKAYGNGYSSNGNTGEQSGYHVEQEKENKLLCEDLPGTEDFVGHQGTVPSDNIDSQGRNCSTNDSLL
Chain of Cannabinoid receptor 1 (P21554 whole entry): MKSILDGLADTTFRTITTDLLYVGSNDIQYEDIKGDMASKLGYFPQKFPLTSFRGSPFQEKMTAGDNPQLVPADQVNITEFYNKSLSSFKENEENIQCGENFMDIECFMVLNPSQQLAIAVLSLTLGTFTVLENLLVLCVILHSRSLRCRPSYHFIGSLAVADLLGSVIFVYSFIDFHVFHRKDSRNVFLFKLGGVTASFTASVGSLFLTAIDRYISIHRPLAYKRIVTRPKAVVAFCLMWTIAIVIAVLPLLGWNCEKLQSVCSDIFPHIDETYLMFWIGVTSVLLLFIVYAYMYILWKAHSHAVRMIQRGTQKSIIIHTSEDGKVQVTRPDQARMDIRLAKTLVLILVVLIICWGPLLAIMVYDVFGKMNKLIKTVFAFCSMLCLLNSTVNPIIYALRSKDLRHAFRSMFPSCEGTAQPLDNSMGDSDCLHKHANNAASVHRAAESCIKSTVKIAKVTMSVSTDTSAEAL

As usually defined, the AC50 is the concentration at which the activity in the assay is half-maximal. The low end stands for activity at low concentration, the high end for activity only at high concentration. On to `Oc1cc(O)c(Cl)cn1`, for which the AC50 in assay [1] is over 30 µM; in assay [2], over 30 µM; in assay [3], 26 µM; in [4], over 30 µM; in [5], over 30 µM; in assay [6] it was over 30 µM.

Regarding `Clc1ccc(CCC(Cn2ccnc2)Sc2c(Cl)cccc2Cl)cc1` (stereo not given) [BUTOCONAZOLE], the AC50 in assay [2] is 21 µM; in assay [3], over 30 µM; in assay [4] it was 19 µM; in assay [5] it was over 30 µM; in assay [7], 20 µM; in [6], over 30 µM.

For the compound `CC(CN(C)C)C(C)(O)Cc1ccc(Cl)cc1` (stereo not given) [CLOBUTINOL], the AC50 was over 30 µM in assay [1]; over 30 µM in assay [2]; over 30 µM in assay [8]; over 10 µM in assay [9]; over 30 µM in assay [3]; over 30 µM in assay [10]. For the same compound, the figures for the AC50 in [4] and in assay [7] were over 10 µM and over 30 µM, respectively.

In the case of `Oc1ccc(CCNCCCCCCNCCc2ccccc2)cc1O` [DOPEXAMINE], the AC50 in assay [1] was over 30 µM; in assay [2] it was over 30 µM; in assay [3] it was 1.4 µM; in assay [4], 19 µM; in assay [5], over 30 µM; in assay [7] it was over 30 µM. In addition, in assay [6], the concentration at half-maximal activity (AC50) is over 30 µM.

In the case of `CCCCOc1ccc(C(=O)CCN2CCCCC2)cc1` [DYCLONINE], the AC50 in assay [1] was over 30 µM; in [2], over 10 µM; in [8] it was over 30 µM; in assay [9], 9.66 µM; in assay [3] it was over 30 µM; in [10], over 30 µM. In addition, the values for the half-maximal activity concentration (AC50) in assay [4], in assay [5] and in assay [7] were over 10 µM, over 30 µM and over 30 µM, respectively.

As to `CCc1cc2c(s1)-n1c(C)nnc1CN=C2c1ccccc1Cl` [ETIZOLAM], the AC50 in [1], in [2], in [3], in assay [4], in assay [5] and in assay [7] was over 30 µM each time. This compound registered an AC50 in assay [6] of over 30 µM.

Take `CC/C=C\C/C=C\C/C=C\C/C=C\C/C=C\CCCC(=O)OCC` [ICOSAPENT ETHYL]: the half-maximal activity concentration (AC50) in assay [1] is over 30 µM; in [2], over 30 µM; in assay [3], over 30 µM; in assay [4] it was over 30 µM; in [5], over 30 µM; in assay [7] it was over 10 µM. For the same compound, the AC50 in assay [6] is over 30 µM.

`COc1ccc(CN2CCN(C(c3ccc(F)cc3)c3ccc(F)cc3)CC2)c(OC)c1OC` [LOMERIZINE]: the concentration at half-maximal activity (AC50) is 23 µM in [1]; over 30 µM in [2]; 8.2 µM in assay [3]; 19 µM in assay [4]; over 30 µM in [5]; 21 µM in assay [6].

Regarding `CC(=O)[C@H]1CC[C@H]2[C@@H]3C[C@H](C)C4=CC(=O)CC[C@]4(C)[C@H]3[C@@H](O)C[C@]12C` [MEDRYSONE], the AC50 in [1] is over 30 µM; in assay [2], over 30 µM; in assay [9], over 10 µM; in [3], over 30 µM; in assay [10], over 10 µM; in assay [4], over 10 µM. The compound further had an AC50 in assay [6] of over 10 µM.

`CCCC(C)(COC(N)=O)COC(N)=O` [MEPROBAMATE]: the AC50 in assay [2] was over 30 µM; in [9], over 30 µM; in assay [10], over 10 µM; in assay [4] it was over 10 µM; in assay [6] it was over 10 µM.

For the compound `OC[C@H]1O[C@@H](Oc2cc(O)cc(/C=C/c3ccc(O)cc3)c2)[C@H](O)[C@@H](O)[C@@H]1O` [PICEID], the concentration at half-maximal activity (AC50) in [1] is over 30 µM; in [2] it was over 30 µM; in assay [3], 19 µM; in [4], over 30 µM; in assay [5], over 30 µM; in assay [7] it was over 30 µM. Besides, in assay [6], the AC50 was over 30 µM.

On to `O=C1CC[C@@H](C(=O)N2CSC[C@H]2C(=O)O)N1` [PIDOTIMOD] ([pGlu]-[Thz]-OH), for which the concentration at half-maximal activity (AC50) in assay [1], in assay [2], in assay [3], in assay [4], in [5] and in [7] was over 30 µM in each case. The AC50 in assay [6] is over 30 µM.

Regarding `CCC(NC(C)C)C(O)c1ccc(O)c2[nH]c(=O)ccc12` (stereo not given) [PROCATEROL], the AC50 in [1], in [2], in assay [3], in [4], in assay [5] and in assay [7] was over 30 µM throughout. This compound also came in with a concentration at half-maximal activity (AC50) in [6] of over 30 µM.

Take `CCc1nc(N)nc(N)c1-c1ccc(Cl)cc1` [PYRIMETHAMINE]: the AC50 was over 30 µM in assay [1]; over 30 µM in [2]; over 30 µM in assay [8]; 4 µM in [9]; over 30 µM in assay [3]; over 10 µM in assay [10]. In addition, the AC50 in assay [4] and in assay [7] was over 10 µM each time.

Take `C=CC[N+]1([C@H]2C[C@H]3[C@@H]4CC[C@H]5C[C@H](O)[C@@H](N6CCOCC6)C[C@]5(C)[C@H]4CC[C@]3(C)[C@H]2OC(C)=O)CCCC1` [ROCURONIUM]: the AC50 in assay [2], in assay [3], in assay [10], in [4], in [7] and in assay [6] was over 30 µM in each case.

With `CCCN1CCCC[C@H]1C(=O)Nc1c(C)cccc1C` [ROPIVACAINE], the concentration at half-maximal activity (AC50) in assay [1], in [2], in assay [3], in assay [4], in [5] and in assay [6] was over 30 µM in each case.

With `Cn1c(=O)c2c(ncn2CCOC(=O)C(C)(C)Oc2ccc(Cl)cc2)n(C)c1=O` [THEOFIBRATE], the concentration at half-maximal activity (AC50) in assay [1], in [2], in assay [3], in assay [4], in [5] and in assay [7] was over 30 µM each time. The compound further showed an AC50 in assay [6] of over 30 µM.

With `CC(C)(C)NCC(O)c1ccccc1Cl` (stereo not given) [TULOBUTEROL], the AC50 in assay [1], in [2], in [3], in [4], in assay [5] and in [7] was over 30 µM each time. In addition, in assay [6], the concentration at half-maximal activity (AC50) was over 30 µM.

For `CC(C(=O)O)c1ccc2c(c1)CC(=O)c1ccccc1S2` (stereo not given) [ZALTOPROFEN], the AC50 in [1], in assay [2], in assay [3], in assay [4], in [5] and in assay [7] was over 30 µM each time. In [6], this compound came in with an AC50 of over 30 µM.
